Measured values reported in patent US10870647B2, “Imidazopyridine derivative, method for preparing same, and pharmaceutical composition containing same as active ingredient for preventing or treating cancer” (DAEGU-GYEONGBUK MEDICAL INNOVATION FOUNDATION, priority 2016, dated 2020).
Where two headings read alike, the source gives them in different places.

Columns and labels:
Experiment in all cases: Kinase selectivity, scanMAX Kinase assay panel (DiscoverX), % control at 1 uM
Assay type in all cases: binding
[1] = molecular target: T1, scanMAX Kinase assay panel (Homo sapiens, UniProt P08631); conditions: HCK; 1 uM; read-out: Percent Control (%)
T1 construct: purchased DiscoverX
In short: (§1)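 Compounds were tested at 1 uM in DMSO against each enzyme in the panel. Percent control was calculated as (compound − positive control)/(negative control − positive control) × 100, and a compound was scored active on a kinase when this value fell below 35.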

[2] = molecular target: T2, scanMAX Kinase assay panel (Homo sapiens, UniProt P11802); conditions: 1 uM, read-out: Percent Control (%)
T2 construct: purchased DiscoverX
In short: as §1

[3] = molecular target: T3, scanMAX Kinase assay panel (Homo sapiens, UniProt P24941); conditions: CDK2; 1 uM; read-out: Percent Control (%)
T3 construct: purchased DiscoverX
In short: as §1

[4] = molecular target: T4, scanMAX Kinase assay panel (Homo sapiens, UniProt P32298); conditions: GRK4; 1 uM; read-out: Percent Control (%)
T4 construct: purchased DiscoverX
In short: as §1

[5] = molecular target: T5, scanMAX Kinase assay panel (Homo sapiens, UniProt P42338); conditions: PIK3CB; 1 uM; read-out: Percent Control (%)
T5 construct: purchased DiscoverX
In short: as §1

[6] = molecular target: T6, scanMAX Kinase assay panel (Homo sapiens, UniProt P45983); conditions: JNK1; 1 uM; read-out: Percent Control (%)
T6 construct: purchased DiscoverX
In short: as §1

[7] = molecular target: T7, scanMAX Kinase assay panel (Homo sapiens, UniProt P49840); conditions: GSK3A; 1 uM; read-out: Percent Control (%)
T7 construct: purchased DiscoverX
In short: as §1

[8] = molecular target: T8, scanMAX Kinase assay panel (Homo sapiens, UniProt P78368); conditions: CSNK1G2; 1 uM; read-out: Percent Control (%)
T8 construct: purchased DiscoverX
In short: as §1

[9] = molecular target: T9, scanMAX Kinase assay panel (Homo sapiens, UniProt Q8N568); conditions: DCAMKL2; 1 uM; read-out: Percent Control (%)
T9 construct: purchased DiscoverX
In short: as §1

[10] = molecular target: T10, scanMAX Kinase assay panel (Homo sapiens, UniProt Q8N752); conditions: CSNK1A1L; 1 uM; read-out: Percent Control (%)
T10 construct: purchased DiscoverX
T10 sequence (Q8N752 1-337): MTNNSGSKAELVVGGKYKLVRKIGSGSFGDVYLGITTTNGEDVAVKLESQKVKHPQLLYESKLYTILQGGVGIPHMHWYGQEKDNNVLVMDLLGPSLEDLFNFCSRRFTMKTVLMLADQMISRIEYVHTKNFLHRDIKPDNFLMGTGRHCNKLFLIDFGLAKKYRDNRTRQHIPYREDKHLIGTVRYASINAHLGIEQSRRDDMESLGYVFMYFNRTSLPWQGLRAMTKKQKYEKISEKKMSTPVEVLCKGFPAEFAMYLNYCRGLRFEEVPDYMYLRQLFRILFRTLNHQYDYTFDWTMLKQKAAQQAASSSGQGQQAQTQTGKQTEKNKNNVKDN
In short: as §1

[11] = molecular target: T11, scanMAX Kinase assay panel (Homo sapiens, UniProt Q8TDC3); conditions: BRSK1; 1 uM; read-out: Percent Control (%)
T11 construct: purchased DiscoverX
T11 sequence (Q8TDC3 1-778): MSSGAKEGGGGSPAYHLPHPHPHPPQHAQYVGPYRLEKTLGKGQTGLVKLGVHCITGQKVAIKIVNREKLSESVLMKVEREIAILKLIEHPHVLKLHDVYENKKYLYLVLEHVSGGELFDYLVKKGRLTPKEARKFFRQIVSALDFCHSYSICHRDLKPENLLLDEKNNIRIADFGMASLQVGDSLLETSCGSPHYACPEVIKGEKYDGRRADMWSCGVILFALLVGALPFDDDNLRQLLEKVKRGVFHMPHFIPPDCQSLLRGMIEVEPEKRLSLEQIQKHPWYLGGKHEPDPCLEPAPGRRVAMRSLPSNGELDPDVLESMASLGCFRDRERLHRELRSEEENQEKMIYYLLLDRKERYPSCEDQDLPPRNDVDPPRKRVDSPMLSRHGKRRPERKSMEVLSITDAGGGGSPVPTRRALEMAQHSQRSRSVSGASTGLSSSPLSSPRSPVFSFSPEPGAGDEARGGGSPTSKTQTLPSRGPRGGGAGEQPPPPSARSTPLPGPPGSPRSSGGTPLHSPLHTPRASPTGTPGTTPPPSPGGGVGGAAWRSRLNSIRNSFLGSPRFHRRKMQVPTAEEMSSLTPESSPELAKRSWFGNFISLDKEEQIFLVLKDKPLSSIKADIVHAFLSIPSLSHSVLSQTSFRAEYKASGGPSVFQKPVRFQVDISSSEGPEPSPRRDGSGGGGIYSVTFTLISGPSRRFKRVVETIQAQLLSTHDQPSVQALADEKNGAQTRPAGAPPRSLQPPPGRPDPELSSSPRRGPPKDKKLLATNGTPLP
In short: as §1

[12] = molecular target: T12, scanMAX Kinase assay panel (Homo sapiens, UniProt Q9UM73); conditions: ALK; 1 uM; read-out: Percent Control (%)
T12 construct: purchased DiscoverX
In short: as §1

T7 sequence (P49840 whole entry): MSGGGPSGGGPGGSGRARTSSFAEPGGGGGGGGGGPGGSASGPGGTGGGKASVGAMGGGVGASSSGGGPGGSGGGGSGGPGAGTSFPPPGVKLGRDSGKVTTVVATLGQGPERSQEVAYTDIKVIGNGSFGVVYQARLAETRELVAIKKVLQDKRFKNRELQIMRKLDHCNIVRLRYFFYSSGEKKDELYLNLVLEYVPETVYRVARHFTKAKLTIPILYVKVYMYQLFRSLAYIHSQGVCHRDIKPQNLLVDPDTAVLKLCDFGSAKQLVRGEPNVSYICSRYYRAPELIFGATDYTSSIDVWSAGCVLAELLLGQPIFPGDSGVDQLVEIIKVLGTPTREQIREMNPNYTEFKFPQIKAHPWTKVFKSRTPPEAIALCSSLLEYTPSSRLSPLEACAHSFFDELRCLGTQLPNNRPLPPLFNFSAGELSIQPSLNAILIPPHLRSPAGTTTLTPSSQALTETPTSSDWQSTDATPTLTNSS
T9 sequence (Q8N568 whole entry): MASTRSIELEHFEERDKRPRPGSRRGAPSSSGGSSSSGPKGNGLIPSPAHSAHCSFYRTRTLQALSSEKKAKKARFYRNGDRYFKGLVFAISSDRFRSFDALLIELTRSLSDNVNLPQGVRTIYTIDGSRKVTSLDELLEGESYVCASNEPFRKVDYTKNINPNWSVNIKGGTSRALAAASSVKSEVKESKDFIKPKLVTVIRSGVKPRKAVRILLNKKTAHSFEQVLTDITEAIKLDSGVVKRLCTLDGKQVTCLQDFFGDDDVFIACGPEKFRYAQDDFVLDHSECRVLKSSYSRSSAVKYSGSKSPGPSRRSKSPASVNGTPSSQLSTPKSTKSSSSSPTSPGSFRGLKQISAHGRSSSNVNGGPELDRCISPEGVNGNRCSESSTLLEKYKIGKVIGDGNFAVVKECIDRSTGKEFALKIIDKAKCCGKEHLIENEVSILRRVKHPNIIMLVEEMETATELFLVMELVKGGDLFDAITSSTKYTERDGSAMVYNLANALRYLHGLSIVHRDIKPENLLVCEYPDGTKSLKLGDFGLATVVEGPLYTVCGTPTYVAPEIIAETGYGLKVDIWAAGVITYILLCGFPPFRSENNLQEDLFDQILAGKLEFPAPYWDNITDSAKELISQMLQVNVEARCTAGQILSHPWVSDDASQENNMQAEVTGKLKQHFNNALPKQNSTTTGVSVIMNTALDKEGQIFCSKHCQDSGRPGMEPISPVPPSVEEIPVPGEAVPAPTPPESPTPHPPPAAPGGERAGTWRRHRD
T1 sequence (P08631 whole entry): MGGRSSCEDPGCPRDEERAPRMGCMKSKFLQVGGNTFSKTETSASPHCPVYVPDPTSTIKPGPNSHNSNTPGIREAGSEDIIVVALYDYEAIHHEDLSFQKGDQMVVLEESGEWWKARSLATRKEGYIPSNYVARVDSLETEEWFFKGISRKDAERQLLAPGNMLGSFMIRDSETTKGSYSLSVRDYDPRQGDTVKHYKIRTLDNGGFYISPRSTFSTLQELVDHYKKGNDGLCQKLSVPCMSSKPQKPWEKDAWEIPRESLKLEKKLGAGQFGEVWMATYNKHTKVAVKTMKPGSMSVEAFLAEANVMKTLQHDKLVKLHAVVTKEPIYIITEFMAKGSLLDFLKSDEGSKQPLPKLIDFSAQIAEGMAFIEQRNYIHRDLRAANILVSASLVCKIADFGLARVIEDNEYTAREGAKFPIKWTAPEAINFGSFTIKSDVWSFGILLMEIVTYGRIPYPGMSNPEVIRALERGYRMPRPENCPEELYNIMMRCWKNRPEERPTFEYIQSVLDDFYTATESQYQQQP
T8 sequence (P78368 whole entry): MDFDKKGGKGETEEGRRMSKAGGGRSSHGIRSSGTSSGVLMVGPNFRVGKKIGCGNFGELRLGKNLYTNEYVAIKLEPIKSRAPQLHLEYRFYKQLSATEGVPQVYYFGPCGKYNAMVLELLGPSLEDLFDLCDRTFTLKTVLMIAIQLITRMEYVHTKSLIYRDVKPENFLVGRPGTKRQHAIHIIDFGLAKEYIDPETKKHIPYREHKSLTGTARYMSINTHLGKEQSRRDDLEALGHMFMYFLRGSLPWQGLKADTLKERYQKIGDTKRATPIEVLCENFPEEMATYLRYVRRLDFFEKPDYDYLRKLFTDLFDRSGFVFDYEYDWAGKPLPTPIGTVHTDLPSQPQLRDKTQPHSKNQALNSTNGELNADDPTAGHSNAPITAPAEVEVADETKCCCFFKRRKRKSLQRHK
T2 sequence (P11802 whole entry): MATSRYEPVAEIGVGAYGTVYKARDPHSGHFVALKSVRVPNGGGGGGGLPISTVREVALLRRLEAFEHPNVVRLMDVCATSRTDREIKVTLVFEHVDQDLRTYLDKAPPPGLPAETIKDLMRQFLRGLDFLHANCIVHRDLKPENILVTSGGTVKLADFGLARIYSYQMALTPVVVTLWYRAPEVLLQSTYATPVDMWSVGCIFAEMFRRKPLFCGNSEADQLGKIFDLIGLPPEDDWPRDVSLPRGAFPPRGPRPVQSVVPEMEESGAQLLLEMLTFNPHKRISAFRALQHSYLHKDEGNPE
T4 sequence (P32298 whole entry): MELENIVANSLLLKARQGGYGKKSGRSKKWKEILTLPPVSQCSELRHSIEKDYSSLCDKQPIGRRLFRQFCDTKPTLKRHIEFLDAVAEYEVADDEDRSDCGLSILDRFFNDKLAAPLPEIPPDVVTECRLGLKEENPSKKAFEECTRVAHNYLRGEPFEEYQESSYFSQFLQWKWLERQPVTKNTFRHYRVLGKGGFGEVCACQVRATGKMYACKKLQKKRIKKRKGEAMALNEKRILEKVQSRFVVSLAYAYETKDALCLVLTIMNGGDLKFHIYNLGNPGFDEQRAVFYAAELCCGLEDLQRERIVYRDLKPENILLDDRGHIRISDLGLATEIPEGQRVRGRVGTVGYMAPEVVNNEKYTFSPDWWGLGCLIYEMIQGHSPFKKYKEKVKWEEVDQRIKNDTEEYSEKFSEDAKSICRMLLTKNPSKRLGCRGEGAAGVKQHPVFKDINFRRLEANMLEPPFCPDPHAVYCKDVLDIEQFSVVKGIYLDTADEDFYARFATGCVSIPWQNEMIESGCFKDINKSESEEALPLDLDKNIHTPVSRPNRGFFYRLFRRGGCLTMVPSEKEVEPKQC
T5 sequence (P42338 whole entry): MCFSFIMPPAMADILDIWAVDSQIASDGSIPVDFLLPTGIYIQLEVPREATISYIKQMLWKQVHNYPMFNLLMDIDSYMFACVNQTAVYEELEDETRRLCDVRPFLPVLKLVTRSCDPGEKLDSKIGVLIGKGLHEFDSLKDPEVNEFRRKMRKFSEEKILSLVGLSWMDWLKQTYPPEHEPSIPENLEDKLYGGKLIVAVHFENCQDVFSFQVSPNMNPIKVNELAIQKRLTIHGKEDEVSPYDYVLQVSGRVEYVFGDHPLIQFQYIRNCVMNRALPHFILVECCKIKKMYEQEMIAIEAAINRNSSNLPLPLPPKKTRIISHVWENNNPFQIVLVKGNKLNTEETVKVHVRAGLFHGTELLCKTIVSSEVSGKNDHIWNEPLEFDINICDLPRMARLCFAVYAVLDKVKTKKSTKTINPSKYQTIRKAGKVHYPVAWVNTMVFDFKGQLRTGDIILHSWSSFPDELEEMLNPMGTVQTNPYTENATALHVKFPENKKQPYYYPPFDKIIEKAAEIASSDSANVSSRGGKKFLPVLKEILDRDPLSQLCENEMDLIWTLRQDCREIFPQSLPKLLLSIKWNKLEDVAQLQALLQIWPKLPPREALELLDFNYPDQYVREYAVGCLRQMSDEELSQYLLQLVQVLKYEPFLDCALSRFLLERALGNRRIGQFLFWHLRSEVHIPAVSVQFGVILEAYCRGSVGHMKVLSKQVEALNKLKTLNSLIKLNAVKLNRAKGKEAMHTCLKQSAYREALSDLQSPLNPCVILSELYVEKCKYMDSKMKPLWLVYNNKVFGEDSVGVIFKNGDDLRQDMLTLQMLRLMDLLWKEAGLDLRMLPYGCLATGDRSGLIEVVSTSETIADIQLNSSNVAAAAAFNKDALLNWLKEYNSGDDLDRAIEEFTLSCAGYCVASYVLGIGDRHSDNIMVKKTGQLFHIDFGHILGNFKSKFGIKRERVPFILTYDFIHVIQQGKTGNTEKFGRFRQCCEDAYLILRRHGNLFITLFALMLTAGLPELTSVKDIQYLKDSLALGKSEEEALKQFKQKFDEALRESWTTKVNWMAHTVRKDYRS
T6 sequence (P45983 whole entry): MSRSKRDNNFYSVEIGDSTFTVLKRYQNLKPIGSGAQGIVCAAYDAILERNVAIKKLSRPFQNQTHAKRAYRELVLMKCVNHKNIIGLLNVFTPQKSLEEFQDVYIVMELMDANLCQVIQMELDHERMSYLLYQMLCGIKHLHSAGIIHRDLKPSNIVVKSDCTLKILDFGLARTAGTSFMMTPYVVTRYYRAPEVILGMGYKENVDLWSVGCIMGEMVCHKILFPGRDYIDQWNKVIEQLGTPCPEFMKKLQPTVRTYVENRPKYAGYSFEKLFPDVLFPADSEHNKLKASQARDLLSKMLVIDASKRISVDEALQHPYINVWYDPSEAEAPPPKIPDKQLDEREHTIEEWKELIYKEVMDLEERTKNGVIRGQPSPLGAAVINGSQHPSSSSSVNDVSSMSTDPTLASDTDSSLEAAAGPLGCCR

Row | SMILES | remaining binding at 1 µM [1] | remaining binding at 1 µM ([2]; CDK4-cyclinD1) | remaining binding at 1 µM ([2]; CDK4-cyclinD3) | remaining binding at 1 µM ([2]; CDK4) | remaining binding at 1 µM [3] | remaining binding at 1 µM [4] | remaining binding at 1 µM [5] | remaining binding at 1 µM [6] | remaining binding at 1 µM [7] | remaining binding at 1 µM [8] | remaining binding at 1 µM [9] | remaining binding at 1 µM [10] | remaining binding at 1 µM [11] | remaining binding at 1 µM [12]
1 | Cc1ccc(C(=O)Nc2ccc(CN3CCN(C)CC3)c(C(F)(F)F)c2)cc1C#Cc1cnc2c(Nc3cnn(C)c3)cccn12 [Example 1, 4-methyl-3-((8-((1-methyl-1H-pyrazol-4-yl)amino)imidazo[1,2-a]pyridin-3-yl)ethynyl)-N-(4-((4-methylpiperazin-1-yl)methyl)-3-(trifluoromethyl)phenyl)benzamide] | 0% | 84% | 78% | 83% | 29% | 100% | 92% | 4% | 76% | 91% | 91% | 93% | 100% | 70%
2 | Cc1cn(-c2cc(NC(=O)c3ccc(C)c(C#Cc4cnc5c(Nc6cnn(C)c6)cccn45)c3)cc(C(F)(F)F)c2)cn1 [Example 12, 4-methyl-N-(3-(4-methyl-1H-imidazol-1-yl)-5-(trifluoromethyl)phenyl)-3-((8-((1-methyl-1H-pyrazol-4-yl)amino)imidazo[1,2-a]pyridin-3-yl)ethynyl)benzamide] | 1% | 100% | 100% | 100% | 85% | 100% | 100% | 63% | 100% | 94% | 78% | 70% | 83% | 100%
3 | Cc1ccc(NC(=O)C2(C(=O)Nc3ccc(F)cc3)CC2)cc1C#Cc1cnc2c(Nc3cnn(C(C)C)c3)cccn12 [Example 78] | 71% | 100% | 100% | 100% | 95% | 100% | 100% | 99% | 100% | 100% | 100% | 100% | 100% | 100%
